Results reported in patent US10398751B2, “Pharmaceutical compositions of water soluble peptides with poor solubility in isotonic conditions and methods for their use” (STRONGBRIDGE IRELAND LIMITED, priority 2016, dated 2019).
Where a name gives a salt, the structure may show the parent alone.

Experiments:
[1] = Solubility in Tris-HCl and lysine solutions; format: physicochemical
Description: In light of the solubility of veldoreotide acetate in Tris-HCl, the solubility of veldoreotide acetate was tested in solutions containing L-lysine and L-lysine HCl.

[2] = system: human lymphocytes; experiment: Human peripheral blood lymphocytes proliferation assays; format: cell-based
[3] = Peptide content, encapsulation efficiency and residual additives of microspheres; format: physicochemical; conditions: Example 7 PLGA 50:50 (7-17 kDa) microspheres
From the text: These observations and conclusion are supported by the analysis of the residual HPB concentration in the MS formulations of HPB. Indeed, the analytical data (see below) confirms that the same ratio of HPB:PEP were maintained in the final MS of HPB and therefore verifying the conditions and data of Table 6.
Therefore, unlike the case of HPB, the effect of the DEX on the COR005 surface activity at the injection site seems to be negligible. The effect for the DEX is addressed in the SEM analysis section below.
Tables 19 and 20 summarize the peptide content and encapsulation efficiency (EE) of bulk samples of microspheres, measured by HPLC.
PLGA microspheres containing veldoreotide acetate were prepared. 500 mg of PLGA 50:50 (7-17 kDa) was dissolved in 5 mL dichloromethane oil phase). An aqueous solution contacting 50 mg of veldoreotide acetate in 1 ml of DDW prepared separately (inner aqueous phase). The first aqueous phase was emulsified into the oil phase (containing PLGA), using a high-speed homogenizer (Polytron) at 2-8° C. using different speeds and time durations to form water in oil primary emulsion. The primary emulsion was added (drop wise) into the 100 ml of external aqueous phase containing 1% PVA solution in PBS to form secondary emulsion. […]

[4] = Circulatory half-life after subcutaneous administration to rats; conditions: rat, in vivo, sc
From the text: The unique pharmacokinetic profile of veldoreotide acetate as evaluated in animals is consistent with its metabolic stability as evaluated in-vitro against various enzymes and tissue homogenates. […] This prolonged half-life is due to its unique “flip-flop” kinetics, a result of its slow release from the injection site.

[5] = system: human Carcinoid cell line; experiment: Chromogranin A release; format: cell-based

solubility ([1]; 20 mM Tris-HCl): highly soluble
solubility ([1]; Tris-HCl increased to 137 mM or 117 mM NaCl added): significantly reduced
effect on solubility of veldoreotide acetate ([1]; addition of L-lysine HCl, isotonic media): substantially improved
effect on solubility of veldoreotide acetate ([1]; solution containing L-lysine): did not substantially improve
encapsulation efficiency (EE) % [3]: 77%
final drug load in microspheres [3]: 6 weight %
half-life [4]: ~3 h
SMILES: C[C@@H](O)[C@@H]1NC(=O)[C@H](CCCCN)NC(=O)[C@@H](Cc2c[nH]c3ccccc23)NC(=O)[C@H](Cc2c[nH]c3ccccc23)NC(=O)[C@H](Cc2ccccc2)NC(=O)CCCNC(=O)CCCN(CC(N)=O)C(=O)[C@H](Cc2ccccc2)NC1=O [Veldoreotide Acetate, Cyclo(-γ-aminobutyryl-L-phenylalanyl-L-tryptophanyl-D-tryptophanyl-L-lysyl-L-threonyl-L-phenylalanyl-N-carbamoylmethyl-γ-aminobutyryl), acetate salt]
mitogenicity for human lymphocytes [2]: non-mitogenic
Chromogranin A release [5]: inhibits
